Measurements as given in patent US11760764B2, “Methods and compositions for targeting PD-L1” (Aligos Therapeutics, Inc., priority 2020, dated 2023).
Read-outs that look alike come from different tables or passages of the source.

Columns and labels:
[1] = molecular target: T1, PD-1/PD-L1 interaction (Jurkat cells overexpressing PD-1 co-cultured with PD-L1 expressing CHO cells) (Homo sapiens, UniProt Q9NZQ7); assay: PD-1/PD-L1 NFAT Reporter Assay; type: cell-based; details: Table C-1; Jurkat/CHO co-culture, 6 hrs at 37° C., luciferase activity
T1 construct: expressed in transfected cells; Jurkat cells (PD-1 and NF-AT luciferase construct)
Protocol: Blocking the PD-1/PD-L1 interaction will release the inhibitory signal and results in TCR signaling and NFAT-mediated luciferase activity.
CHO cells expressing surface-bound anti-CD3 antibodies and PD-L1 were first seeded overnight and treated with the compounds. Jurkat cells overexpressing PD-1 and a luciferase construct under NF-AT promoter were then immediately seeded on the monolayer of CHO cells. The co-culture was then incubated for 6 hrs at 37° C. Luciferase activity was assessed by adding the ONE-Glo reagent and measuring luminescence with a plate reader. EC50s values were determined from the fit of the dose-response curves

[2] = molecular target: PD-1/PD-L1 interaction (PDL1-6×His protein, PD1-Fc-Avi-Biotin protein) (Homo sapiens, UniProt Q9NZQ7); assay: PDL1/PD1 Binding Assay; details: 0.3 nM PDL1, 2.5 nM PD1
Protocol: Compounds to be tested were serially diluted in DMSO, and further diluted in assay buffer (25 mM Hepes pH 7.4, 150 mM NaCl, 0.005% Tween 20, BSA 0.01%). Diluted compounds were added to the wells with final concentration of DMSO at 1%. PDL1-6×His protein was added to the wells, mixed well with compound. The plates were incubated for 30 min at room temperature. PD1-Fc-Avi-Biotin protein was added to the wells. […] After a binding time of 30 min at room temperature, Anti-6×His Acceptor beads (final concentration 20 ug/ml) were added to the wells, and the incubation continued for 1 h. Streptavidin Donor beads (final concentration 20 ug/mL) were added at reduced light. The plates were sealed with foil and incubated in the dark for additional 1 h or overnight before reading on an Envision reader. The IC50s were determined by fitting the curves using a four-parameter equation in Graphpad Prism 8.

[3] = Table C-1, read-out: Biological Data Biochem PD-1/PD-L1
[4] = Table C, read-out: PD-1/PD-L1 PPI IC50

Chain of PD-1/PD-L1 interaction (PDL1-6×His protein, PD1-Fc-Avi-Biotin protein) (Q9NZQ7 19-238 limits assumed): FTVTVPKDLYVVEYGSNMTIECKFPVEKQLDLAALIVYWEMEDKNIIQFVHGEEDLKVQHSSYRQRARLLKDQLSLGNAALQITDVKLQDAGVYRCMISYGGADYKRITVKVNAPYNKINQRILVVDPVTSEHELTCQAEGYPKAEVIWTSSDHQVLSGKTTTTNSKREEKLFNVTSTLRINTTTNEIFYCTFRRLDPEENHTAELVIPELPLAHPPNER
T1 sequence (Q9NZQ7 19-290): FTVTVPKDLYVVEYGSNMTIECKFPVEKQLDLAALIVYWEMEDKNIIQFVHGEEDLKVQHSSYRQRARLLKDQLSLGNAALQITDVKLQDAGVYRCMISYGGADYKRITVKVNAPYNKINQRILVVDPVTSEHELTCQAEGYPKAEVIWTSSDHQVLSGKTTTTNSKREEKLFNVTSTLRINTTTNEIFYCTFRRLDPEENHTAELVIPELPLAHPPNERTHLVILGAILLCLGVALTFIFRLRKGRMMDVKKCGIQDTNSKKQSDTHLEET

Structure (SMILES)	EC50 [1] [nM]	IC50 [2, 3] [nM]	PD-1/PD-L1 NFAT Reporter Assay [1]	IC50 [2, 4] [nM]
CCOC(=O)C1CN([C@H]2CCc3cc(-c4cccc(-c5cccc(-c6cc7c(c(OC)c6)[C@@H](N6CC(C(=O)OCC)C6)CC7)c5Cl)c4Cl)cc(OC)c32)C1 (single isomer, unassigned) [Compound L-4]	100 to 1000	≤ 10	–	–
CCOC(=O)C1CN([C@@H]2CCc3cc(-c4cccc(-c5cccc(-c6cc7c(c(OC)c6)[C@H](N6CC(C(=O)OCC)C6)CC7)c5Cl)c4Cl)cc(OC)c32)C1 (single isomer, unassigned) [Compound L-5]	–	100 to 1000	n.r	–
CCOC(=O)C1CN([C@H]2CCc3cc(-c4cccc(-c5cccc(-c6ccc7c(c6)CC[C@@H]7N6CC(C(=O)OCC)C6)c5Cl)c4Cl)ccc32)C1 (single isomer, unassigned) [Compound L-6]	1000 to 10000	≤ 10	–	–
CCOC(=O)C1CN([C@@H]2CCc3cc(-c4cccc(-c5cccc(-c6ccc7c(c6)CC[C@H]7N6CC(C(=O)OCC)C6)c5Cl)c4Cl)ccc32)C1 (single isomer, unassigned) [Compound L-7]	100 to 1000	≤ 10	–	–
COc1nc(-c2cccc(-c3cccc(-c4cc5c(c(OC)n4)[C@@H](N4CC6(CCC(=O)N6)C4)CC5)c3Cl)c2F)cc2c1[C@@H](N1CC3(CCC(=O)N3)C1)CC2 (single isomer, unassigned) [Compound L-9]	≤ 10	≤ 10	–	≤ 10
COc1nc(-c2cccc(-c3cccc(-c4cc5c(c(OC)n4)[C@@H](N4CC6(CN(C(C)=O)C6)C4)CC5)c3Cl)c2F)cc2c1[C@@H](N1CC3(CN(C(C)=O)C3)C1)CC2 (single isomer, unassigned) [Compound L-10]	> 10000	≤ 10	–	≤ 10
COc1nc(-c2cccc(-c3cccc(-c4cc5c(c(OC)n4)[C@H](N4CC6(CN(C(C)=O)C6)C4)CC5)c3Cl)c2F)cc2c1[C@H](N1CC3(CN(C(C)=O)C3)C1)CC2 (single isomer, unassigned) [Compound L-11]	≤ 10	≤ 10	–	≤ 10
CCOC(=O)C1CN([C@H]2CCc3cc(-c4cccc(-c5cccc(-c6ccc7c(c6)CC[C@@H]7N6CC(C(=O)O)C6)c5Cl)c4Cl)ccc32)C1 (single isomer, unassigned) [Compound M-2A]	100 to 1000	≤ 10	–	–
O=C(O)C1CN([C@H]2CCc3cc(-c4cccc(-c5cccc(-c6ccc7c(c6)CC[C@@H]7N6CC(C(=O)O)C6)c5Cl)c4Cl)ccc32)C1 (single isomer, unassigned) [Compound M-2B]	100 to 1000	≤ 10	–	–
CCOC(=O)C1CN([C@@H]2CCc3cc(-c4cccc(-c5cccc(-c6ccc7c(c6)CC[C@H]7N6CC(C(=O)O)C6)c5Cl)c4Cl)ccc32)C1 (single isomer, unassigned) [Compound M-3A]	100 to 1000	≤ 10	–	–
O=C(O)C1CN([C@@H]2CCc3cc(-c4cccc(-c5cccc(-c6ccc7c(c6)CC[C@H]7N6CC(C(=O)O)C6)c5Cl)c4Cl)ccc32)C1 (single isomer, unassigned) [Compound M-3B]	100 to 1000	≤ 10	–	–
COc1cc(-c2cccc(-c3cccc(-c4cc5c(c(OC)c4)[C@H](N4CC(C(=O)O)C4)CC5)c3Cl)c2Cl)cc2c1[C@H](N1CC(C(=O)O)C1)CC2 (single isomer, unassigned) [Compound M-4B]	–	10 to 100	n.r	–
COc1nc(-c2cccc(-c3cccc(-c4cc5c(c(OC)n4)[C@@H](N4CC(C(=O)O)C4)CC5)c3Cl)c2Cl)cc2c1[C@@H](NC[C@@H]1CCC(=O)N1)CC2 (single isomer, unassigned) [Compound N-1B]	≤ 10	–	–	–
CCOC(=O)C1CN([C@H]2CCc3cc(-c4cccc(-c5cccc(-c6cc7c(c(OC)c6)[C@@H](NC[C@@H]6CCC(=O)N6)CC7)c5Cl)c4Cl)cc(OC)c32)C1 (single isomer, unassigned) [Compound N-2A]	–	–	n.r	–
COc1cc(-c2cccc(-c3cccc(-c4cc5c(c(OC)c4)[C@@H](N4CC(C(=O)O)C4)CC5)c3Cl)c2Cl)cc2c1[C@@H](NC[C@@H]1CCC(=O)N1)CC2 (single isomer, unassigned) [Compound N-2B]	100 to 1000	–	–	–
CCOC(=O)C1CN([C@H]2CCc3cc(-c4cccc(-c5cccc(-c6cc7c(c(OC)c6)[C@H](NC[C@@H]6CCC(=O)N6)CC7)c5Cl)c4Cl)cc(OC)c32)C1 (single isomer, unassigned) [Compound N-3A]	10 to 100	–	–	–
COc1cc(-c2cccc(-c3cccc(-c4cc5c(c(OC)c4)[C@@H](N4CC(C(=O)O)C4)CC5)c3Cl)c2Cl)cc2c1[C@H](NC[C@@H]1CCC(=O)N1)CC2 (single isomer, unassigned) [Compound N-3B]	10 to 100	–	–	–
CCOC(=O)C1CN(C2CCc3cc(-c4cccc(-c5cccc(-c6cc7c(c(OC)n6)CCN(CCOC)C7)c5Cl)c4Cl)cc(OC)c32)C1 (single isomer, unassigned) [Compound O-2A]	100 to 1000	–	–	–
COc1nc(-c2cccc(-c3cccc(-c4cc5c(c(OC)n4)[C@@H](NC[C@@H]4CCC(=O)N4)CC5)c3Cl)c2Cl)cc2c1[C@@H](NC[C@@H]1CCC(=O)N1)CC2 [Compound L-3]	≤ 10	–	–	–
COc1nc(-c2cccc(-c3cccc(-c4cc5c(c(OC)n4)[C@@H](NC[C@@H]4CCC(=O)N4)CC5)c3Cl)c2F)cc2c1[C@@H](NC[C@@H]1CCC(=O)N1)CC2 [Compound L-8]	≤ 10	≤ 10	–	≤ 10
COc1cc(-c2cccc(-c3cccc(-c4cc5c(c(OC)c4)C(N4CC(C(=O)O)C4)CC5)c3Cl)c2Cl)cc2c1C(N1CC(C(=O)O)C1)CC2 (stereo not drawn) [Compound M-1B]	100 to 1000	≤ 10	–	–
COCCN1CCc2c(cc(-c3cccc(-c4cccc(-c5cc6c(c(OC)n5)CCN(CCOC)C6)c4Cl)c3Cl)nc2OC)C1 [Compound O-1]	1000 to 10000	≤ 10	–	–
COCCN1CCc2c(cc(-c3cccc(-c4cccc(-c5cc6c(c(OC)c5)[C@@H](N5CC(C(=O)O)C5)CC6)c4Cl)c3Cl)nc2OC)C1 [Compound O-2B]	10 to 100	–	–	–
